Measured values reported in ChEMBL document CHEMBL4680185, “Discovery of novel cyclin-dependent kinase (CDK) and histone deacetylase (HDAC) dual inhibitors with potent in vitro and in vivo anticancer activity” (Eur J Med Chem, 2020).
pIC50: −log10 of the molar value. Calls of active or inactive are those of the source. The calls are words filed in the database; no cut-off is given here.

Legend:
[1] = molecular target: Cyclin-dependent kinase 4/cyclin D1 (Homo sapiens, UniProt P11802); assay: Inhibition of recombinant human full length CDK4/cyclin D1 expressed in Sf9 cells incubated for 10 mins by ADP-Glo reagent assay
A-375 [2] = assay: cells; type: functional, cell-based; details: Homo sapiens, A-375, 72 h
Description: Antiproliferative activity against human A375 cells assessed as inhibition of cell growth incubated for 72 hrs by CCK-8 assay

HCT-116 [3] = assay: cells; type: functional; details: Homo sapiens, time 72 hrs, read-out: GI
[4] = Half life in ICR mouse at 20 mg/kg, ip by LC-MS/MS analysis; type: ADME, organism-based; details: in vivo
HCT-116 [5] = assay: Induction of apoptosis in human HCT116 cells assessed as number of apoptotic cells at 2 uM incubated for 48 hrs by annexin V-FITC/PI based flow cytometric analysis relative to control; type: functional
[6] = molecular target: T1, Protein deacetylase HDAC6 (Homo sapiens, UniProt Q9UBN7); assay: Inhibition of human recombinant HDAC6 preincubated for 10 mins followed by addition of substrate fluor De Lys SIRT1 deacetylase measured after 30 mins by fluorescent plate reader analysis
T1 sequence (Q9UBN7 whole entry): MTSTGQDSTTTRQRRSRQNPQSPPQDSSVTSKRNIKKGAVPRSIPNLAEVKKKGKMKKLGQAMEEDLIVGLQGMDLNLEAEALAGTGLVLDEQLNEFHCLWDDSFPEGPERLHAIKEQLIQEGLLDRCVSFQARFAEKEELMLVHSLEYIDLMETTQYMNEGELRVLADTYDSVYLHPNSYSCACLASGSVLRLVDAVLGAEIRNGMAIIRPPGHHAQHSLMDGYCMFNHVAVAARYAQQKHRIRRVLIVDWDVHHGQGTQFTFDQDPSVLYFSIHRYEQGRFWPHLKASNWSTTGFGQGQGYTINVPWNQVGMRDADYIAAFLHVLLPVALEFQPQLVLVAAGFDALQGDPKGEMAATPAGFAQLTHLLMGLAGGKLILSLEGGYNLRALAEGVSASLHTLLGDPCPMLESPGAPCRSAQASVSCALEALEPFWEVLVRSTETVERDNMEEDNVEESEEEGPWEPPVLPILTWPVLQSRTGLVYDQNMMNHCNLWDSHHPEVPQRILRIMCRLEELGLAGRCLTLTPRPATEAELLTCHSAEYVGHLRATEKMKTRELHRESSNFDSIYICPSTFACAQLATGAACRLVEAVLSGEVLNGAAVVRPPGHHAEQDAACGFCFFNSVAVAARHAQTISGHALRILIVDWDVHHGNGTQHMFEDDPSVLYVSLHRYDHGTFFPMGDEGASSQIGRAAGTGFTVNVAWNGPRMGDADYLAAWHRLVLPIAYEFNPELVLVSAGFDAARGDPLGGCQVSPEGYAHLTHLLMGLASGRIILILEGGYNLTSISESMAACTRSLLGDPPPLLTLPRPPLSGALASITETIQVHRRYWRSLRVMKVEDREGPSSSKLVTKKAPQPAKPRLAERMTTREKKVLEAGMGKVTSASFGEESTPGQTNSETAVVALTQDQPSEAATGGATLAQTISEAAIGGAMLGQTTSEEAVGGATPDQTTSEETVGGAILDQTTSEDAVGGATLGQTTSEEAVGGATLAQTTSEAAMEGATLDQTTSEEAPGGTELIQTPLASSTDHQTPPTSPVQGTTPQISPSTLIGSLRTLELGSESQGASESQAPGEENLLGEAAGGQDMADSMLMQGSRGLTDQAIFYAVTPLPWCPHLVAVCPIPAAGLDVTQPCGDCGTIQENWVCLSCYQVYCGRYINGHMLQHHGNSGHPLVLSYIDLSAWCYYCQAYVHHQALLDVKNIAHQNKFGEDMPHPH

NCI-H460 [7] = assay: Induction of apoptosis in human H460 cells assessed as number of apoptotic cells at 0.5 to 2 uM incubated for 48 hrs by annexin V-FITC/PI based flow cytometric analysis; type: functional, cell-based; details: dose 0.5-2 µM
Histone deacetylase 2 = Histone deacetylase 2 (Homo sapiens, UniProt Q92769); assay: Inhibition of human recombinant HDAC2 preincubated for 10 mins followed by addition of substrate fluor De Lys green measured after 30 mins by fluorescent plate reader analysis
[8] = Cytotoxicity against mouse NIH/3T3 cells incubated for 72 hrs by CCK-8 assay; type: cell-based; details: NIH3T3, 72 h
[9] = AUC (0 to infinity) in ICR mouse at 20 mg/kg, ip by LC-MS/MS analysis; type: ADME, organism-based; design: time infinity, route intraperitoneal, dose 20 mg/kg; details: in vivo
SMMC-7721 = assay: cells; type: functional, cell-based; details: Homo sapiens, SMMC-7721, 72 h
Description: Antiproliferative activity against human SMMC7721 cells assessed as inhibition of cell growth incubated for 72 hrs by CCK-8 assay

HCT-116 [10] = assay: cells; type: functional, cell-based; details: Homo sapiens, HCT-116, 72 h
Description: Antiproliferative activity against human HCT116 cells assessed as inhibition of cell growth incubated for 72 hrs by CCK-8 assay

A-375 [11] = assay: Cell cycle arrest in human A375 cells assessed as increase in number of cells at G2/M phase at 2 uM incubated for 24 hrs by propidium iodide staining based flow cytometry (reference value: 1.13%); type: functional
NCI-H460 [12] = assay: cells; type: functional; details: Homo sapiens, time 72 hrs, read-out: GI
[13] = MRT (0 to infinity) in ICR mouse at 20 mg/kg, ip by LC-MS/MS analysis; type: ADME, organism-based; details: in vivo
[14] = Cmax in ICR mouse at 20 mg/kg, ip by LC-MS/MS analysis; type: ADME, organism-based; design: route intraperitoneal, dose 20 mg/kg; details: in vivo
A-375 [15] = assay: Antimigratory activity against human A375 cells assessed as inhibition of cell migration at 0.25 uM measured after 48 hrs by cell scratch assay; type: functional, cell-based
CDK1/Cyclin A = CDK1/Cyclin A (Homo sapiens, UniProt P06493); assay: Inhibition of recombinant human full length CDK1/cyclin A2 expressed in Sf9 cells incubated for 10 mins by ADP-Glo reagent assay
NCI-H460 [16] = assay: cells; type: functional; details: Homo sapiens, time 72 hrs, read-out: GI; remark: listed apart in the source
HeLa = assay: cells; type: functional, cell-based; details: Homo sapiens, 72 h
Description: Antiproliferative activity against human Hela cells assessed as inhibition of cell growth incubated for 72 hrs by CCK-8 assay

Histone deacetylase 8 = molecular target: T2, Histone deacetylase 8 (Homo sapiens, UniProt Q9BY41); assay: Inhibition of human recombinant HDAC8 preincubated for 10 mins followed by substrate addition measured after 30 mins by fluorescent plate reader analysis
T2 sequence (Q9BY41 whole entry): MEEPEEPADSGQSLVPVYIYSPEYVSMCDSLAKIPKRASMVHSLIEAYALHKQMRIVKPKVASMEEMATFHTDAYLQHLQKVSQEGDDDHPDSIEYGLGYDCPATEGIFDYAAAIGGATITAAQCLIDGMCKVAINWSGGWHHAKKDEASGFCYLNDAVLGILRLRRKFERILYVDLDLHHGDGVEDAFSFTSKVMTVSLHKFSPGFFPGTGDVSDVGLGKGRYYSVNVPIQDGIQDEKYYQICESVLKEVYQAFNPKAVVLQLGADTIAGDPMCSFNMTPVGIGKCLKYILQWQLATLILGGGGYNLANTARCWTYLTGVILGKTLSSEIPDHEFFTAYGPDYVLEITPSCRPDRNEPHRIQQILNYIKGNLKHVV

NCI-H460 [17] = assay: Cell cycle arrest in human H460 cells assessed as increase in number of cells at G2/M phase at 0.5 to 2 uM incubated for 24 hrs by propidium iodide staining based flow cytometry; type: functional; details: dose 0.5-2 µM

| pIC50 [1] | pIC50 (A-375 [2]) | t1/2 [4] [min] | pIC50 [6] | pIC50 (Histone deacetylase 2) | AUC [9] [ng·h/mL] | pIC50 (SMMC-7721) | pIC50 (HCT-116 [10]) | MRT inf [13] [h] | Cmax [14] [ng/mL] | pIC50 (CDK1/Cyclin A) | pIC50 (HeLa) | SMILES | inhibition of growth at 2 µM (HCT-116 [3]) [%] | Activity (HCT-116 [5]) [%] | Activity (NCI-H460 [7]) | pIC50 [8] | Activity (A-375 [11]) [%] | inhibition of growth at 2 µM (NCI-H460 [12]) [%] | inhibition (A-375 [15]) | inhibition of growth at 8 µM (NCI-H460 [16]) [%] | other results |
| --- | --- | --- | --- | --- | --- | --- | --- | --- | --- | --- | --- | --- | --- | --- | --- | --- | --- | --- | --- | --- | --- |
| < 6.00 | 5.80 | 97.8 | < 6.00 | 9.62 | 7200 | 5.28 | 5.84 | 2.36 | 2170 | 7.90 | 5.50 | Nc1ccccc1NC(=O)Cc1ccc(NC(=O)c2n[nH]cc2NC(=O)c2c(Cl)cccc2Cl)cc1 | 72.9 | 77.1 | Active | 5.33 | 66.48 | 57.3 | Active | 67.4 | pIC50 (Histone deacetylase 8): < 6.00; Activity (NCI-H460 [17]): Active |
| < 6.00 | 5.92 | 157 | < 6.00 | 9.60 | 30700 | 5.11 | 6.15 | 3.31 | 7570 | 8.06 | 5.74 | Nc1ccccc1NC(=O)c1ccc(CNC(=O)c2n[nH]cc2NC(=O)c2c(Cl)cccc2Cl)cc1 | 73.8 | 60.6 | Active | 5.35 | 57.74 | 32.8 | Active | 78.3 | pIC50 (Histone deacetylase 8): < 6.00; Activity (NCI-H460 [17]): Active |
